Reference: patent publication US20160237106A1 (priority 2015, published 2016)

Assays:
Ebola virus = test: microbe, parasite or virus in culture; assay type: cell-based; conditions: Zaire ebolavirus, Vero C1008
in vitro = conditions: African green monkey

Compound	EC50 (Ebola virus) [µM]	CC50 (in vitro) [µM]
[N-]=[N+]=N[C@]1(CO)O[C@@H](n2ccc(N)nc2=O)[C@H](F)[C@@H]1O [Compound I-17, 4′-Azido-2′-deoxy-2′-fluorocytidine]	< 20	> 50
[N-]=[N+]=N[C@]1(CO)O[C@@H](n2cnc3c(=O)[nH]c(N)nc32)[C@H](F)[C@@H]1O [Compound I-47, 4′-Azido-2′-deoxy-2′-fluoroguanosine]	< 20	> 50
[N-]=[N+]=N[C@]1(CO)O[C@@H](n2cnc3c(=O)[nH]c(N)nc32)[C@H](O)[C@@H]1O [Compound I-48, 4′-Azidoguanosine]	< 50	> 50
C[C@H](NP(=O)(OC[C@@]1(N=[N+]=[N-])O[C@@H](n2ccc(=O)[nH]c2=O)[C@H](O)[C@@H]1O)Oc1cccc2ccccc12)C(=O)OCc1ccccc1 (stereo partly drawn) [Compound I-6, 4′-Azidouridine-5′-(O-1-naphthyl-N-(S)-1-(benzyloxycarbonyl)ethyl phosphoramidate]	< 20	> 50
